Laboratory results as given in patent US9521847B2, “Synergistic weed control from applications of pyridine carboxylic acid herbicides and synthetic auxin herbicides and/or auxin transport inhibitors” (Dow AgroSciences LLC, priority 2014, dated 2016).
“And” between values parts separate entries of the source, which are not always exact repeats. Equal entries are not always repeated. Where two headings read alike, the source gives them in different places.

Assays:
[1] = test system: sunflower (Helianthus annus, HELAN); experiment: Greenhouse postemergence trial, % visual injury; assay type: in vivo; conditions: HELAN
[2] = test system: velvetleaf (Abutilon theophrasti, ABUTH); experiment: Greenhouse postemergence trial, % visual injury; assay type: in vivo; conditions: Abutilon theophrasti, post-emergence, read-out: % visual injury, Obs; for pest or weed control at 5 g/ha / pest or weed control at 10 g/ha: ABUTH
[3] = test system: Chinese kale (Brassica alboglabra, BRSAG); experiment: Greenhouse postemergence trial, % visual injury; assay type: in vivo; conditions: BRSAG
[4] = test system: wild pansy (Viola tricolor, VIOTR); experiment: Greenhouse postemergence trial, % visual injury; conditions: for % visual injury, Obs: VIOTR
[5] = test system: wild buckwheat (Polygonum convolvulus, POLCO); experiment: Greenhouse postemergence trial, % visual injury; assay type: in vivo; conditions: for % visual injury, Obs: POLCO
[6] = test system: winter rape (BRSNW, Brassica napus); experiment: Greenhouse postemergence trial, % visual injury; assay type: in vivo; conditions: for % visual injury, Obs: BRSNW
common rice (ORYSA) = experiment: Greenhouse postemergence trial, crop phytotoxicity (% visual injury); conditions: ORYSA
[7] = test system: rutabaga (Brassica napus var. napobrassica, BRSNA); experiment: Greenhouse postemergence trial, % visual injury; assay type: in vivo; conditions: BRSNA; naptalam 140 g ai/ha
winter wheat (TRZAW) [8] = experiment: Greenhouse postemergence trial, crop phytotoxicity (% visual injury); conditions: TRZAW
[9] = test system: Roundup Ready rape (Brassica napus, BRSNN-RR); experiment: Greenhouse postemergence trial, % visual injury; assay type: in vivo
maize (ZEAMX) [10] = experiment: Greenhouse postemergence trial, crop phytotoxicity (% visual injury); conditions: ZEAMX
[11] = test system: Canadian thistle (CIRAR, Cirsium arvense); experiment: Greenhouse postemergence trial, % visual injury; conditions: CIRAR; naptalam 140 g ai/ha;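 note: plants sprayed at second to third true leaf stage, injury scored visually 20-22 d later against solvent-blank sprayed controls, 0 meaning no injury and 100 complete kill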
[12] = test system: turnip (Brassica rapa, BRSRR); experiment: Greenhouse postemergence trial, % visual injury; assay type: in vivo; conditions: for % visual injury, Obs: BRSRR
[13] = test system: wild mustard (Sinapis arvensis, SINAR); experiment: Greenhouse postemergence trial, % visual injury; assay type: in vivo; conditions: for % visual injury, Obs: SINAR
[14] = test system: kochia (KCHSC, Kochia scoparia); experiment: Greenhouse postemergence trial, % visual injury; assay type: in vivo; conditions: for % visual injury, Obs.: Table 61
Method: Following the protocol in Example 1, compound 1 and compound 2 were combined with 2,4 D EHE (EC) and applied to kochia (KCHSC, Kochia scoparia) and the phytotoxicity of the herbicidal compositions was measured.
Following the protocol in Example 1, compound 1 (EC) and Compound 2 (SC) were combined with diflufenzopyr and applied to kochia (Kochia scoparia, KCHSC) and the phytotoxicity of the herbicidal composition was measured.

[15] = test system: blackgrass (Alopecurus myosuroides, ALOMY); experiment: Greenhouse postemergence trial, % visual injury; assay type: in vivo
[16] = test system: ivyleaf morningglory (Ipomoea hederacea, IPOHE); experiment: Greenhouse postemergence trial, % visual injury; conditions: Ipomoea, post-emergence
maize (ZEAMX) [17] = conditions: maize (Zea mays), in vivo
[18] = test system: black mustard (Brassica nigra, BRSNI); experiment: Greenhouse postemergence trial, % visual injury; assay type: in vivo
[19] = test system: spring rape (Brassica napus, BRSNN); experiment: Greenhouse postemergence trial, % visual injury; conditions: for % visual injury, Obs: BRSNN
winter wheat (TRZAW) [20] = conditions: winter wheat (Triticum aestivum), in vivo
[21] = test system: common lambsquarters (CHEAL, Chenopodium album L.); experiment: Greenhouse postemergence trial, % visual injury; assay type: in vivo; conditions: CHEAL
[22] = test system: nutsedge (Cyperus esculentus, CYPES); experiment: Greenhouse postemergence trial, % visual injury; assay type: in vivo; conditions: CYPES
[23] = test system: pigweed (AMARE, Amaranthus retroflexus); experiment: Greenhouse postemergence trial, % visual injury; assay type: in vivo; conditions: AMARE
[24] = test system: Russian thistle (Salsola iberica, SASKR); experiment: Greenhouse postemergence trial, % visual injury; assay type: in vivo; conditions: SASKR
[25] = test system: Indian hedge mustard (Sisymbrium orientale, SSYOR); experiment: Greenhouse postemergence trial, % visual injury; assay type: in vivo
[26] = test system: wild radish (Raphanus raphanistrum, RAPRA); experiment: Greenhouse postemergence trial, % visual injury; assay type: in vivo
[27] = test system: poinsettia (Euphorbia heterophylla, EPHHL); experiment: Greenhouse postemergence trial, % visual injury; conditions: Euphorbia heterophylla, post-emergence
[28] = test system: wild oat (Avena fatua, VEFA); experiment: Greenhouse postemergence trial, % visual injury; assay type: in vivo; conditions: AVEFA
[29] = test system: large crabgrass (Digitaria sanguinalis, DIGSA); experiment: Greenhouse postemergence trial, % visual injury; assay type: in vivo; conditions: DIGSA
[30] = test system: grain sorghum (Sorghum vulgare, SORVU); experiment: Greenhouse postemergence trial, % visual injury; assay type: in vivo; conditions: SORVU
[31] = test system: brown mustard (Brassica juncea, BRSJU); experiment: Greenhouse postemergence trial, % visual injury; assay type: in vivo; conditions: BRSJU; 2,3,5-TIBA 140 g ai/ha
[32] = Brassica napus, post-emergence, read-out: % visual injury, Obs

O=C(O)c1ccccc1C(=O)Nc1cccc2ccccc12 [naptalam, reference compound]
% visual injury, Obs ([1]; naptalam 140 g ai/ha): 0% | pest or weed control at 140 g/ha [2]: 0% | % visual injury, Obs ([3]; naptalam 140 g ai/ha): 0% | % visual injury, Obs ([4]; naptalam 140 g ai/ha): 0% | % visual injury, Obs ([5]; naptalam 140 g ai/ha): 0% | % visual injury, Obs ([6]; naptalam 140 g ai/ha): 0% | % visual injury, Obs (common rice (ORYSA); naptalam 140 g ai/ha): 0% | % visual injury, Obs [7]: 0% | % visual injury, Obs (winter wheat (TRZAW) [8]; naptalam 140 g ai/ha): 0% | % visual injury, Obs ([9]; naptalam 140 g ai/ha): 0% | % visual injury, Obs (maize (ZEAMX) [10]; naptalam 140 g ai/ha): 0% | % visual injury, Obs [11]: 0% | % visual injury, Obs ([12]; naptalam 140 g ai/ha): 0%

Nc1c(F)c(-c2ccc3cc[nH]c3c2F)nc(C(=O)OCc2ccccc2)c1Cl [compound 2]
pest or weed control at 5 g/ha ([2]; 5 g ae/ha): 78% | pest or weed control at 10 g/ha ([2]; 10 g ae/ha): 95% | pest or weed control at 5 g/ha ([2]; compound 2 (EC) 5 g ae/ha): 78% | pest or weed control at 10 g/ha ([2]; compound 2 (EC) 10 g ae/ha): 95% | % visual injury, Obs ([13]; 5 g ae/ha): 95% | % visual injury, Obs ([13]; 10 g ae/ha): 100% | % visual injury (Obs) ([13]; compound 2 SC 2.5 g ae/ha): 87% | % visual injury (Obs) ([13]; compound 2 SC 5 g ae/ha): 100% and 94% | % visual injury (Obs) ([13]; compound 2 SC 10 g ae/ha): 100% | % visual injury, Obs ([4]; 5 g ae/ha): 15% | % visual injury, Obs ([4]; 10 g ae/ha): 40% | % visual injury, Obs ([4]; compound 2 (EC) 5 g ae/ha): 15% | % visual injury, Obs ([4]; compound 2 (EC) 10 g ae/ha): 40% | % visual injury (Obs) ([4]; compound 2 SC 2.5 g ae/ha): 13% | % visual injury (Obs) ([4]; compound 2 SC 5 g ae/ha): 23% | % visual injury (Obs) ([5]; compound 2 SC 5 g ae/ha): 30% | % visual injury (Obs) ([5]; compound 2 SC 10 g ae/ha): 50% | % visual injury Obs ([14]; 8.75 g ae/ha alone, 20-22 d): 55% | pest or weed control at 5 g/ha ([14]; Bassia scoparia, post-emergence, KCHSC, 5 g ae/ha, read-out: % visual injury, Obs): 30% | pest or weed control at 10 g/ha ([14]; Bassia scoparia, post-emergence, KCHSC, 10 g ae/ha, read-out: % visual injury, Obs): 75% | % visual injury, Obs. ([14]; KCHSC, compound 2 (SC) 8.75 g ae/ha): 84% | % visual injury, Obs. ([14]; KCHSC, compound 2 (SC) 17.5 g ae/ha): 86% | % visual injury, Obs ([6]; 5 g ae/ha): 30% | % visual injury, Obs ([6]; 10 g ae/ha): 50% | % visual injury (Obs) ([6]; compound 2 SC 5 g ae/ha): 50% | % visual injury (Obs) ([6]; compound 2 SC 10 g ae/ha): 50% | % visual injury, Obs ([15]; 5 g ae/ha): 0% | % visual injury, Obs ([15]; 10 g ae/ha): 0% | pest or weed control at 5 g/ha ([16]; read-out: % visual injury, Obs, IPOHE, 5 g ae/ha): 10% | pest or weed control at 10 g/ha ([16]; read-out: % visual injury, Obs, IPOHE, 10 g ae/ha): 20% | pest or weed control at 5 g/ha ([16]; read-out: % visual injury, Obs, IPOHE, compound 2 (EC) 5 g ae/ha): 10% | pest or weed control at 10 g/ha ([16]; read-out: % visual injury, Obs, IPOHE, compound 2 (EC) 10 g ae/ha): 20% | % visual injury, Obs (maize (ZEAMX) [17]): 3% | % visual injury (Obs) ([18]; compound 2 SC 2.5 g ae/ha): 30% | % visual injury (Obs) ([18]; compound 2 SC 5 g ae/ha): 70% | % visual injury, Obs ([19]; compound 2 (EC) 5 g ae/ha): 30% | % visual injury, Obs ([19]; compound 2 (EC) 10 g ae/ha): 55% | plant injury at 5 g/ha [19, 32]: 30% | plant injury at 10 g/ha [19, 32]: 55% | % visual injury, Obs (winter wheat (TRZAW) [20]): 3% | % visual injury, Obs ([21]; 5 g ae/ha): 88% | % visual injury, Obs ([21]; 10 g ae/ha): 99% | % visual injury, Obs ([22]; 5 g ae/ha): 5% | % visual injury, Obs ([22]; 10 g ae/ha): 10% | % visual injury, Obs ([22]; compound 2 (EC) 5 g ae/ha): 5% | % visual injury, Obs ([22]; compound 2 (EC) 10 g ae/ha): 10% | % visual injury, Obs ([23]; 5 g ae/ha): 88% and 65% | % visual injury, Obs ([23]; 10 g ae/ha): 100% and 60% | % visual injury, Obs ([23]; compound 2 (EC) 5 g ae/ha): 88% | % visual injury, Obs ([23]; compound 2 (EC) 10 g ae/ha): 100% | % visual injury, Obs ([24]; 5 g ae/ha): 10% | % visual injury, Obs ([24]; 10 g ae/ha): 10% | % visual injury (Obs) ([25]; compound 2 SC 2.5 g ae/ha): 20% | % visual injury (Obs) ([25]; compound 2 SC 5 g ae/ha): 40% | % visual injury (Obs) ([26]; compound 2 SC 2.5 g ae/ha): 17% | % visual injury (Obs) ([26]; compound 2 SC 5 g ae/ha): 25% | pest or weed control at 5 g/ha ([27]; read-out: % visual injury, Obs, EPHHL, 5 g ae/ha): 35% | pest or weed control at 10 g/ha ([27]; read-out: % visual injury, Obs, EPHHL, 10 g ae/ha): 75% | pest or weed control at 5 g/ha ([27]; read-out: % visual injury, Obs, EPHHL, compound 2 (EC) 5 g ae/ha): 35% | pest or weed control at 10 g/ha ([27]; read-out: % visual injury, Obs, EPHHL, compound 2 (EC) 10 g ae/ha): 75% | % visual injury, Obs ([28]; 5 g ae/ha): 0% | % visual injury, Obs ([28]; 10 g ae/ha): 0% | % visual injury, Obs ([29]; compound 2 (EC) 5 g ae/ha): 28% | % visual injury, Obs ([29]; compound 2 (EC) 10 g ae/ha): 53% | pest or weed control at 5 g/ha ([29]; Digitaria sanguinalis, post-emergence, 5 g ae/ha, read-out: % visual injury, Obs): 28% | pest or weed control at 10 g/ha ([29]; Digitaria sanguinalis, post-emergence, 10 g ae/ha, read-out: % visual injury, Obs): 53% | % visual injury (Obs) ([12]; compound 2 SC 2.5 g ae/ha): 23% | % visual injury (Obs) ([12]; compound 2 SC 5 g ae/ha): 67% | % visual injury, Obs ([30]; 5 g ae/ha): 38% | % visual injury, Obs ([30]; 10 g ae/ha): 63%

O=C(O)c1cc(I)cc(I)c1I [2,3,5-TIBA, 2,3,5-triiodobenzoic acid, reference compound]
% visual injury, Obs ([1]; 2,3,5-TIBA 140 g ai/ha): 0% | pest or weed control at 140 g/ha [2]: 0% | % visual injury, Obs [31]: 10% | % visual injury, Obs ([3]; 2,3,5-TIBA 140 g ai/ha): 0% | % visual injury, Obs ([4]; 2,3,5-TIBA 140 g ai/ha): 0% | % visual injury, Obs ([5]; 2,3,5-TIBA 140 g ai/ha): 0% | % visual injury, Obs ([6]; 2,3,5-TIBA 140 g ai/ha): 0% | % visual injury, Obs (common rice (ORYSA); 2,3,5-TIBA 140 g ai/ha): 0% | plant injury at 140 g/ha [19, 32]: 5% | % visual injury, Obs (winter wheat (TRZAW) [8]; 2,3,5-TIBA 140 g ai/ha): 0% | % visual injury, Obs ([9]; 2,3,5-TIBA 140 g ai/ha): 0% | % visual injury, Obs (maize (ZEAMX) [10]; 2,3,5-TIBA 140 g ai/ha): 0% | % visual injury, Obs ([12]; 2,3,5-TIBA 140 g ai/ha): 20%
